Literature values in patent publication US20250341511A1, “MASS-TAG LABELING OF THE CELLULAR SECRETOME” (The Governing Council of the University of Toronto, priority 2022, published 2025).

Details: relative to required assay concentration

C[Te]CCCOC(=O)NCCNC(=O)Cn1ccnc1[N+](=O)[O-] [Telox]
metabolic LD50: close to the required assay concentration
